Data: patent publication US20250177324A1, “A[…], AND PREPARATION METHOD THEREFOR AND USE THEREOF” (SHANGHAI ZHIGEN PHARMACEUTICAL & TECHNOLOGY CO. LTD., priority 2022, published 2025)
Where two headings read alike, the source gives them in different places.

Tests used:
[1] = Solid-state chemical stability under different storage conditions (liquid chromatography); type: physicochemical; conditions: 40° C., 75% RH
Description: The HPLC conditions were as follows:
Configuration of test solution: appropriate amount of sample was dissolved and diluted with a diluent (0.03 mol/L phosphate buffer-acetonitrile (80:20)) to make 1 mg/mL solution.
Chromatographic conditions: according to the high performance liquid chromatography (Chinese Pharmacopoeia 2020 version of the four general 0512) test, using octadecyl-bonded silica gel (Agilent Eclipse Plus C18, 4.6 mm*250 mm, 5.0 μm, P/N for 959990-902 or a chromatographic column with equivalent performance) as a filler; 0.03 mol/L phosphate buffer (4.08 g of potassium dihydrogen phosphate was dissolved in 1000 ml of water and shaken well) was used as mobile phase A and acetonitrile as mobile phase B at a flow rate of 1 ml/min, the column temperature was 30° C., the detection wavelength was 220 nm, the injection volume was 10 ul, and the sample plate was controlled to 8° C. and running for 65 min. Gradient elution was performed according to the following table: […]
Configuration of test solution: appropriate amount of the product was dissolved and diluted with a diluent (0.1% phosphoric acid-acetonitrile (80:20)) to make 1 mg/mL solution.
Chromatographic conditions: according to the high performance liquid chromatography (Chinese Pharmacopoeia 2020 version of the four general 0512) test, using octadecyl bonded silica gel (Agilent Eclipse Plus C18, 4.6 mm*250 mm, 5.0 μm, P/N 959990-902 or a chromatographic column with equivalent performance) as a filler; 0.1% phosphate buffer (1 ml of phosphoric acid in 1000 ml of water and shake well) as mobile phase A, acetonitrile as mobile phase B, flow rate of 1 ml/min, column temperature of 30° C., detection wavelength of 220 nm, injection volume of 10 ul, running for 48 minutes. Gradient elution was performed according to the following table: […]

[2] = Brain tissue distribution study in rats; type: in vivo; conditions: SD rats, 10 mg/kg gavage
Description: Healthy male SD rats, randomly grouped with 3 rats in each group, were given the test compounds by gavage.
(§1) Each test compound was dissolved in saline to form a certain concentration solution for administration.
Fasting but not abstaining from water for 12-14 hours on the day before administration, and food was given 4 h after administration.
Brain tissues were collected after the animals were bled, cleaned, and homogenized with 50% ice methanol 1:4 (m/v). The collection time points were 5 min, 10 min, 30 min, and 2 h after the administration of subjects; 30.0 μL of tissue samples were taken (the samples were taken from the refrigerator at −80° C. and vortexed for 30 s after natural dissolution at room temperature) into 1.5 mL centrifugal tubes, and 300.0 μL of the internal standard solution (30 ng/mL buspirone in acetonitrile) was added; the samples were vortexed for 60 s, and centrifuged for 3 min (the centrifugal force was 12,000 rpm). 75 μL of the supernatant was transferred to a 96-well plate containing an equal volume of water, shaken to mix well and then sampled for LC-MS/MS analysis, the sample volume is 10 μL.

C57 mice [3] = assay: Forced swim test of oral administration in mice (antidepressant activity); type: in vivo; conditions: Mus musculus, po, reduction of immobility time vs blank group, single gavage 20 mg/kg
Description: To investigate the effects of different compounds on depression-like behavior in C57 mice by single oral administration of 20 mg/kg for 1 h and 24 h followed by forced swimming experiment, respectively.
The experimental animals were 6-week-old C57 mice, male, C57 breed mice purchased from Shanghai Slaughter Laboratory Animal Co. Ltd, weighing 20.45±0.19 g. The animals arrived at the Animal Breeding Center of the Shanghai Institute of Pharmaceutical Sciences, Chinese Academy of Sciences (Animal Production License: SCXK9[Shanghai]2004-0002, Use License: SYXK [Shanghai]2003-0029) before the experiments and were acclimated to the animal facilities for more than 3 days, 6 animals/cage were feed. The feeding environment was room temperature 23±0.2° C. and 12/12 h day/night alternating light and dark. Prior to behavioral testing, animals were moved to the behavioral testing room 2 hours in advance to acclimatize them to the environment and reduce their nervousness.
Preparation of the test material: the test compounds were weighed and dissolved in 0.9% NaCl solution, mixed well, and prepared into 1 mg/ml and 2 mg/ml solution for use, respectively.
24 h prior to drug administration, mice were placed in a cylindrical tank to acclimatize to the water environment for 10 min. On the day of the behavioral test, the animals were administered the drug once, by gavage/intraperitoneal injection at 1 h and 24 h prior to the behavioral test, respectively (as shown in Table 1).
The antidepressant effect of the compounds was evaluated by their ability to cause a reduction in the immobility time of the animals in the forced swim test compared to the blank group.

[4] = In vivo pharmacokinetic experiments in beagle dogs; conditions: beagle dog
Description: Healthy male beagle dogs, randomly grouped with 3 dogs in each group, were given the test compound by gavage or intravenous injection.
as §1
Fasting but not abstaining from water for 12-14 hours on the day before administration, and food was given 4 h after administration; no fasting was done for the intravenous experiments.
Each animal was sampled with 0.6 mL of blood each time through the jugular vein and anticoagulated with EDTAK2. The collection time points were 5 min, 10 min, 15 min, 30 min, 1 h, 2 h, 4 h, 6 h, 8 h, and 24 h after administration of the subject in group PO; group IV: 2 min, 5 min, 15 min, 30 min, 1 h, 2 h, 4 h, 6 h, 24 h after administration of the subject. Blood samples were placed on ice after collection and centrifuged to separate plasma within 30 min (centrifugation conditions: 5000 rpm, 10 min, 4° C.). The samples were stored at −80° C. before analysis.

C57 mice [5] = assay: Forced swim test of oral administration in mice (antidepressant activity); type: in vivo; conditions: Mus musculus, reduction of immobility time vs blank group, abdominal injection 10 mg/kg
[6] = test 1 h after dosing, read-out: 1 h inhibition (%)
[7] = test 24 h after dosing, read-out: 24 h inhibition (%)

SMILES: CN[C@@]1(c2ccc(C(F)(F)F)cc2)CCC[C@](C)(O)C1=O.Cl [Compound 73, (2S,6R)-2-hydroxy-2-methyl-6-methylamino-6-(4-(trifluoromethyl)phenyl)cyclohexan-1-one hydrochloride]
- Stability of solid state compound, 0 Days (%) ([1]; 0 days, liquid chromatography): 99.94%
- Stability of solid state compound, 5 Days (%) ([1]; 5 days): 99.90%
- Stability of solid state compound, 10 Days (%) ([1]; 10 days): 99.88%
- Stability of solid state compound, 30 Days (%) ([1]; 30 days): 99.89%
- AUC0-t brain ([2]; brain): 6172 ng·h/g
- Cmax brain ([2]; brain): 5567 ng/g
- Kp ([2]; male, rat, brain and plasma, po, read-out: brain/plasma ratio): 3.4
- AUC0-t ([2]; male, rat, po, plasma): 1820 ng·h/mL
- Cmax ([2]; male, rat, po, plasma): 1600 ng/mL
- inhibition in vivo at 20 mg/kg (C57 mice [3]; [6]): 68.7 ± 0.6%
- inhibition in vivo at 20 mg/kg (C57 mice [3]; [7]): 39.4 ± 4.4%
- AUC0-t ([4]; 1 mg/kg i.v.): 941 ngh/mL
- AUC0-∞ ([4]; 1 mg/kg i.v.): 970 ngh/mL
- AUC0-t ([4]; 5 mg/kg P.O.): 2179 ngh/mL
- AUC0-∞ ([4]; 5 mg/kg P.O.): 2224 ngh/mL
- F ([4]; 5 mg/kg P.O.): 46.3%
- MRT ([4]; male, plasma, iv, 1 mg/kg i.v.): 1.84 h
- clearance ([4]; male, plasma, iv, 1 mg/kg i.v.): 17.7 mL/min/kg
- half-life ([4]; male, plasma, iv, 1 mg/kg i.v.): 1.61 h
- Vd ([4]; male, plasma, iv, 1 mg/kg i.v., read-out: Vss): 1.93 L/kg
- Cmax ([4]; male, plasma, po, 5 mg/kg P.O.): 1020 ng/mL
- MRT ([4]; male, plasma, po, 5 mg/kg P.O.): 2.57 h
- Tmax ([4]; male, plasma, po, 5 mg/kg P.O.): 0.42 h
- half-life ([4]; male, plasma, po, 5 mg/kg P.O.): 2.33 h

SMILES: CN[C@]1(c2ccccc2Cl)CCCCC1=O [S-ketamine]
- inhibition in vivo at 10 mg/kg (C57 mice [5]; [6]): 20.7 ± 3.7%
- inhibition in vivo at 10 mg/kg (C57 mice [5]; [7]): 23.6 ± 1%
